Patent US20060292072A1, “Agents for neutron capture therapy” (Pharmacyclics, Inc., priority 2001, published 2006)

Assays:
tumors = conditions: prior art statement; cited from earlier work
[1] = tested on: V79 Chinese hamster cells; test: V79 Chinese hamster cell survival assay after neutron irradiation; type: cell-based; conditions: 30 ppm, incubated twelve hours; neutron beam 2.8×10^11 n/cm^2 min; colony growth 5-6 days
Experimental: In vitro activity for neutron capture therapy is determined, e.g., by measuring the effect of low-level, thermal neutron irradiation on the V79 […] cell line in culture, and measuring resultant cytotoxicity, for example as described by Fairchild et al., Cancer Research 50. After the V79 cells are exposed to a neutron capture agent, they are irradiated with a neutron beam at a fluence rate of 2.8×10^11 n/cm^2 min. The cells are plated for undisturbed colony growth for 5-6 days, after which the remaining cell population is assessed.
The effect of neutron irradiation on V79 Chinese hamster cells incubated for twelve hours with ^157Gd-Tex is determined by a modification of the procedure originally described by Fairchild et al., Cancer Research 50 (1990). Three sets of sample plates of V79 cells are prepared. The first set (control cells) are suspended with 30 ppm ^157Gd-Tex in growth medium. The second set (washed cells) are suspended with 30 ppm ^157Gd-Tex in growth medium, then washed 3 times with PBS, trypsinized and harvested with gadolinium from reagents prior to suspension. The third set (ambient cells) are suspended in a 30 ppm ^157Gd containing medium.
All of the cells are irradiated within 1-2 hours following suspension in growth medium at a population density of 3.0×10^5 cells/ml. The neutron beam fluence rate at the center of the sample is 2.8×10^11 n/cm^2 min. […]

Glioma 261 tumor = test: Neutron capture activity in mice with intracerebral Glioma 261 tumor; type: in vivo; conditions: group A: Gd-Tex intravenous plus 1.2×10^12 neutrons/cm^2 (20 Gy), versus groups B-E; female C57BL/6 mice, up to 100 days
Experimental: In vivo activity for neutron capture therapy is determined, e.g., by post-mortem histological examination of brain tumor tissue by hematoxylin and eosin, as described in Saris et al., Cancer Research, vol. 52 (1992). The antitumor effects of neutron capture therapy are evaluated by implanting Glioma 261 tumor fragments into the brain of a mouse. Approximately 3 hours after administration of a neutron capture agent to be tested, the head is irradiated a with 1.2×10^12 neutron beam (resulting in a planned dose of […]). After 100 days the mouse is sacrificed and the tumorous and non-tumorous sections of the brain are stained with hematoxylin and eosin for histologic examination. The tumor bearing and control brain tissue sections are compared.
This procedure is a modification of a procedure initially described by Saris et al., Cancer Research, vol. 52 (1992). Glioma 261 tumor fragments are injected approximately 2 mm deep to the dura of the brain in 42 female C57BL/6 mice. The mice are randomized into 5 groups. The mice in group A receive […] mg/kg Gd-Tex and 1.2×10^12 neutrons/cm^2 resulting in 20 Gy. Group B mice receive 1.2×10^12 neutrons/cm^2 resulting in 20 Gy. The mice in group C receive […] mg/kg Gd-Tex and 10 Gy of photon irradiation. Group D receives […] mg/kg of Gd-Tex alone. Group E receives no treatment. […]

[2] = prior art statement; cited from earlier work

Which “selectivity for tumors / accumulation in tumor tissue” value (“selectivity for tumors / accumulation” below) (tumors) does the source give for `O=C([O-])CN1CCN(CC(=O)[O-])CCN(CC(=O)O)CCN(CC(=O)[O-])CC1.[Gd+3]` [Gd-DOTA, gadoteric acid] here?
Its value is “not found to be tumor selective”.

For `O=C([O-])CN(CCN(CC(=O)[O-])CC(=O)O)CCN(CC(=O)[O-])CC(=O)O.[Gd+3]` [Gd-DTPA, gadolinium diethylenetriamine-pentaacetic acid], which “selectivity for tumors / accumulation” value (tumors) is on record?
The value was “not found to be tumor selective”.

Which “selectivity for tumors / accumulation” value (tumors) does the source give for `N[C@@H](Cc1ccc(B(O)O)cc1)C(=O)O` [p-boron-phenylalanine] here?
The value was “limited selectivity for tumors”.

And the tumor/blood concentration ratios (tumors)?
Its tumor/blood concentration ratios is “poor tumor/blood concentration ratios”.

For “^157Gd complex of 4,5-diethyl-10,23-dimethyl-9,24-bis(3-hydroxy propyl)-16,17-bis[2-[2-(2-methoxyethoxy)ethoxy]ethoxy]pentaazapentacyclo[20.2.1.1^3,6.1^8,11.0^14,19]heptacos a-1,3,5,7,9,11(27),12,14,16,18,20,22(25),23-tridecaene bis acetate [^157Gd-Tex]”, which “survival of the control cells compared with the washed or ambient cells” value [1] is on record?
The value was “significantly higher”.

For “bis(acetato-O)[9,10-diethyl-20,21-bis[2-[2-(2-methoxyethoxy)ethoxy]ethoxy]-4,15-dimethyl-8,11-imino-3,6:16,13-dinitrilo-1,18-benzodiazacycloeicosine-5,14-dipropanolato-N1,N18,N23,N24,N25]gadolinium [Gd-Tex]”, which survival rate (Glioma 261 tumor) is on record?
Its survival rate is “greater survival rate than any of the other groups”.

For “tetrakiscarborane carboxylate ester of 2,4-(a,b-dihydroxyethyl)deuteroporphyrin [BOPP]”, which “selectivity for tumors / accumulation” value (tumors) is on record?
The value was “poor selectivity for tumors”.

And the phototoxicity [2]?
The phototoxicity was “phototoxic”.
